Laboratory results as given in US10975037B2 (priority 2018, dated 2021).
Where two headings read alike, the source gives them in different places.

Target: full-length human RORγt (Homo sapiens (Human), UniProt P51449)
Assay: RORγt (full-length human) reporter assay, conditions A or B, HEK293T cells
Format: cell-based
Settings: HEK-293T, read-out: RORγt (FL) Reporter Assay A or B, % inhibition; for inhibition at 0.67 µM: 0.67 μM compound concentration (footnote ****)
Method: RORγt (Full-Length Human) Reporter Assay:
(§1) HEK293T cells were plated at 35,000 per well in 96-well plate in medium of DMEM with 10% FBS. […] After overnight (16 to 20 hours) incubation, media were removed and cells were lysed with 50 L Glo Lysis Buffer (Promega) for 10-15 minutes followed by 10 minute incubation with 50 μL Dual Glo reagent (Promega) at room temperature. Firefly luciferase luminescence was measured using a BMG Pherastar plate reader. To each well, 50 μL Stop and Glo reagent was added and incubated for 10 minutes at room temperature. Renilla luminescence was measured using a BMG Pherastar plate reader. To calculate the effect of compounds on RORγt activity, firefly values were normalized against values of DMSO only and values of reference compound at saturating concentration, then further normalized against Renilla signals. IC50s were generated by plotting final Renilla normalized data against compound concentration and percent inhibition was calculated against DMSO control.
as §1, with “at 8750 cells” for “at 35,000”, “in 384-well” for “in 96-well”, “with 20” for “with 50”, “well, 20” for “well, 50”

[1] = 3 μM compound concentration (footnote *)

Sequence of full-length human RORγt (P51449 other isoform, or with tags, fused parts or gaps): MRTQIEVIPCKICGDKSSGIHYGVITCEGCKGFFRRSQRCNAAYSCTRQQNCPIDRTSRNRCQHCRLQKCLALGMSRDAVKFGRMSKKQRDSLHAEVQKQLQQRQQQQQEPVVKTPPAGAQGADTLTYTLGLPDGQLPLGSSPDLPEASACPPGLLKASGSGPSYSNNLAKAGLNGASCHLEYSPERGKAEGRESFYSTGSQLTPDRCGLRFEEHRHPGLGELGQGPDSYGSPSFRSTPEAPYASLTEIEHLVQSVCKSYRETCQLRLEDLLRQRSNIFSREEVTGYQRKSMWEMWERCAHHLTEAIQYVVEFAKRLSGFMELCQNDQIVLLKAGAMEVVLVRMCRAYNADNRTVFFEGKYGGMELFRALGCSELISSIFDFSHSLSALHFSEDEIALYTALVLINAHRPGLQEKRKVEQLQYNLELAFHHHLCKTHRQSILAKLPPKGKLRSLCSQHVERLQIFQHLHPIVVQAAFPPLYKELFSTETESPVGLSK

CCn1nc(C(=O)NC[C@]2(O)CC[C@@H](S(C)(=O)=O)CC2)c(Cl)c1-c1ccc([C@@](C)(O)CCC(F)(F)F)cc1OC(F)F (single isomer, unassigned) [Example 102, 4-Chloro-5-(2-(difluoromethoxy)-4-((S*)-5,5,5-trifluoro-2-hydroxypentan-2-yl)phenyl)-1-ethyl-N-(((1s,4R)-1-hydroxy-4-(methylsulfonyl)cyclohexyl)methyl)-1H-pyrazole-3-carboxamide] was tested, and the inhibition at 3 µM [1] was 85%.
CCn1nc(C(=O)NC[C@]2(O)CC[C@@H](S(C)(=O)=O)CC2)c(Cl)c1-c1ccc([C@H](O)C2(C(F)(F)F)CC2)cc1OC(F)F (single isomer, unassigned) [Example 110, 4-Chloro-5-(2-(difluoromethoxy)-4-((S*)-hydroxy(1-(trifluoromethyl)cyclopropyl)methyl)phenyl)-1-ethyl-N-(((1s,4R)-1-hydroxy-4-(methylsulfonyl)cyclohexyl)methyl)-1H-pyrazole-3-carboxamide] was tested, and the inhibition at 1 µM (1 μM compound concentration (footnote ***)) was 75%.
With CCn1nc(C(=O)NC[C@]2(O)CC[C@@H](S(C)(=O)=O)CC2)c(C)c1-c1ccc(C[C@@H](C)C(F)(F)F)cc1OC(F)F [Example 142, 5-(2-(Difluoromethoxy)-4-((R)-3,3,3-trifluoro-2-methylpropyl)phenyl)-1-ethyl-N-(((1s,4S)-1-hydroxy-4-(methylsulfonyl)cyclohexyl)methyl)-4-methyl-1H-pyrazole-3-carboxamide] the inhibition at […] (0.33 μM compound concentration (footnote *****)) was 87%.
CCn1nc(C(=O)NC[C@]2(O)CC[C@@H](S(C)(=O)=O)CC2)c(Cl)c1-c1ccc(C(O)C2(C(F)(F)F)CC2)cc1OC(F)F (some centres unmarked) [Example 109, 4-Chloro-5-(2-(difluoromethoxy)-4-(hydroxy(1-(trifluoromethyl)cyclopropyl)methyl)phenyl)-1-ethyl-N-(((1s,4s)-1-hydroxy-4-(methylsulfonyl)cyclohexyl)methyl)-1H-pyrazole-3-carboxamide] gave an inhibition at 3 µM of 88%.
Work on CCn1nc(C(=O)NC[C@]2(O)CC[C@@H](S(C)(=O)=O)CC2)c(Cl)c1-c1ccc([C@@H](O)C(C)(C)C(F)(F)F)cc1OC(F)F (single isomer, unassigned) [Example 108, 4-Chloro-5-(2-(difluoromethoxy)-4-((R*)-3,3,3-trifluoro-1-hydroxy-2,2-dimethylpropyl)phenyl)-1-ethyl-N-(((1s,4S)-1-hydroxy-4-(methylsulfonyl)cyclohexyl)methyl)-1H-pyrazole-3-carboxamide] yielded an inhibition at 3 µM [1] of 92%.
[2H]C([2H])([2H])Oc1cc(CC(C)(C)C(F)(F)F)ccc1-c1c(Cl)c(C(=O)NC[C@H]2CC[C@H](S(C)(=O)=O)CC2)nn1CC [Example 193, 4-Chloro-1-ethyl-5-(2-(methoxy-d3)-4-(3,3,3-trifluoro-2,2-dimethylpropyl)phenyl)-N-(((1r,4r)-4-(methylsulfonyl)cyclohexyl)methyl)-1H-pyrazole-3-carboxamide] was tested, and the inhibition at 0.67 µM was 93%.
Work on CCn1nc(C(=O)NC[C@]2(O)CC[C@@H](S(C)(=O)=O)CC2)c(Cl)c1-c1ccc(C[C@H](C)C(F)(F)F)cc1OC (single isomer, unassigned) [Example 37, 4-Chloro-1-ethyl-N-(((1s,4R)-1-hydroxy-4-(methylsulfonyl)cyclohexyl)methyl)-5-(2-methoxy-4-((S*)-3,3,3-trifluoro-2-methylpropyl)phenyl)-1H-pyrazole-3-carboxamide] yielded an inhibition at 0.67 µM of 97%.
In the case of [2H]C([2H])([2H])Oc1cc(CC(C)(C)C(F)(F)F)ccc1-c1c(Cl)c(C(=O)NC[C@]2(O)CC[C@@H](S(C)(=O)=O)CC2)nn1CC [Example 192, 4-Chloro-1-ethyl-N-(((1s,4s)-1-hydroxy-4-(methylsulfonyl)cyclohexyl)methyl)-5-(2-(methoxy-d3)-4-(3,3,3-trifluoro-2,2-dimethylpropyl)phenyl)-1H-pyrazole-3-carboxamide], the inhibition at 2 µM (2 μM compound concentration) is reported as 96%.
